Data on one compound can be found in patent US9540355B2, “Irciniastatin analogues” (priority 2013, dated 2017).

One data set concerns HL-60(TB). To be noted: leukemia HL-60(TB); read-out: LC50 (the source's name); cited from earlier work.
For another data set, the system named is A2058. As to the kind of experiment: Cell growth inhibition assay (CellTiter-Glo). The class given is cell-based, human. The protocol:
(§1) Cell Culture and Cell Growth Inhibition Assay.
(§2) The chosen cell lines are all human cancer cell lines except for the 4T1 murine breast cancer line, representing a wide variety of cancer types including breast (MDA-MB-453), kidney (A498), lung (H1975), pancreatic (PANC-1) and endometrial cancer (AN3CA, HEC-1A, and RL95-2), glioblastoma (U251 and U-87MG), melanoma (A2058 and LOXIMVI) and uterine sarcoma (MES-SA). All the cancer cell lines can be obtained from the American Type Culture Collection (ATCC, Manassas, Va., USA) with the exception of U251 which can be provided by the National Cancer Institute Tumor Repository (Frederick, Md.) and is cultured in the standard tissue culture media appropriate for each cell line. All the culture media are supplemented with 10% fetal bovine serum (FBS), 100 I.U./mL penicillin and 100 μg/mL streptomycin. For the cell growth inhibition assay, the cells are seeded in 96-well tissue culture plates at 500-3000 cells/well (seeding density empirically adjusted for each cell line based on growth rate optimization). The cells are allowed to attach for a minimum of 5 h prior to compound administration. The cells are incubated for a period of 4 days after compound addition. Following the incubation period, CellTiter-Glo reagent (Promega, Madison, Wis., USA) is added to all the wells to assess cell proliferation/viability. Luminescence is measured using an Envision microplate reader (Perkin Elmer, Waltham, Mass., USA). The IC50 values were calculated as the concentration which inhibited cell growth to 50% of DMSO control treated cell populations.
(ATP-based viability assays read luminescence as a measure of living cells.)

A further data set has as its system H522-T1. In words: Cell growth inhibition assay (CellTiter-Glo). The class given is cell-based, human. Here is the method:
as §1, §2

Another data set deals with HCT-116. As to the kind of experiment: Cell growth inhibition assay (CellTiter-Glo). The class given is cell-based, human. The protocol: as §1, §2
Setting [1] is: Homo sapiens, 96 h, 4 days incubation.
Where [2] appears, read: ratio IC50[IMR-90]:IC50[tumor cell line].

Regarding `C=C(C)C[C@H](OC)[C@H](O)C(=O)N[C@@H](OC)[C@@H]1C[C@@H](O)C(C)(C)[C@@H](C[C@H](O)[C@@H](C)[C@H]2Cc3c(C)c(O)cc(O)c3C(=O)O2)O1` [Irciniastatin A, (+)-Irciniastatin A], the CC50 in the data set on HL-60(TB) is over 25000 nM. Also, the IC50 in the data set with A2058 (setting [1]) was determined as 0.4 nM; in the data set on H522-T1 (setting [1]), 1 nM; in the data set with HCT-116 (setting [1]), 4 nM. Moreover, the “Selectivity vs. IMR-90, A2058” value in the data set on A2058 (setting [2]) was determined as 68. Also, the “Selectivity vs. IMR-90, H522-T1” value in the data set with H522-T1 (setting [2]) came out at 27. In addition, the “Selectivity vs. IMR-90, HCT-116” value in the data set on HCT-116 (setting [2]) came out at 7.

For orientation: IC50 means the concentration that gives 50% inhibition. The low end stands for greater potency, the high end for weaker potency.
